Measurements from PubChem BioAssay AID2305 (GlaxoSmithKline (GSK), 2010).
Several values for one entry are separate records, joined by “and”; a condition that tells them apart may be missing. Equal values may be shown once.

Test system: P. falciparum 3D7 growth, pLDH absorbance
Experiment: blood-stage malaria parasite growth potency – strain 3D7, dose response (AID 2305)

Row | Structure (SMILES) | IC50
1 | Cc1cc(OCc2ccncc2)cc2c1C(=O)CC(C)(C)O2 | 0.18 µM
2 | O=C(c1ccccc1N=Nc1c(-c2ccccc2)[nH]n(-c2ccccc2)c1=O)N1CCOCC1 | 0.35 µM
3 | CN(C)CCNC(=O)N1CCCN(c2ncnc3cc(-c4ccccc4)sc23)CC1 | 0.79 µM
4 | COc1ccc(C=CC(=O)NC2CCC(CN3CCC(c4c[nH]c5ccccc45)CC3)CC2)cc1OC (configuration not stated) | 0.84 µM and 0.8 µM
5 | COc1ccc2nccc([C@@H](O)CN3CCC(NCc4nc5c(C#N)cccc5[nH]4)CC3)c2c1 | 1 µM
6 | O=S(=O)(c1c(Cl)cc(Cl)cc1Cl)N1CCCCC(c2ccc(C(F)(F)F)cc2)=N1 | 0.1 µM
7 | O=C(O)c1cccnc1Sc1ccc(Cl)cc1 | 0.83 µM
8 | CN1CCN(c2ccnc3ccc(NC(=O)c4ccc(Cl)c(Cl)c4)cc23)CC1 | 0.71 µM
9 | Cc1cc(NC(=O)NCCN2CCC(NS(=O)(=O)c3ccccc3Cl)C2)c2ccccc2n1 (configuration not stated) | 0.82 µM
10 | Fc1ccc(NC(=S)NCCc2ccccc2)cc1 | 0.78 µM
11 | CN(C)C(=O)C(CC(=O)NCc1ccccc1Cl)N(C)C (configuration not stated) (tested in a mixture with another compound) | 0.9 µM
12 | CC(C)(C)c1ccc(C(=O)Nc2cccc(Nc3c(C(=O)NCc4cccc(C(F)(F)F)c4)cnc4c(O)cccc34)c2)cc1 | 1.09 µM
13 | COc1ccc(O)c(C(=O)c2cnc3c(c2)c(-c2ccc(F)cc2)c(C#N)c(=O)n3C)c1 | 0.79 µM
14 | O=C(/C=C/c1ccc(Cl)c(Cl)c1)NC[C@@H]1CCC[C@H](CN2CCC(c3c[nH]c4ccccc34)CC2)C1 | 0.73 µM
15 | CC(NC(=O)c1cc(-c2ccccc2)nc2c1cnn2C(C)C)C1CC1 (configuration not stated) | 1.28 µM
16 | COc1ccc(-c2cc(NCc3ccc(-n4ccnc4)cc3)nc(Nc3ccccc3)n2)cc1 | 0.97 µM
17 | C=CCc1ccc(C[C@H](NC(=O)OC(C)(C)C)C(=O)OC)cc1 | 0.81 µM
18 | COc1ccc2nccc(NC(=O)N3CCC(NCc4cc5c(F)ccc(F)c5[nH]4)CC3)c2n1 | 0.22 µM
19 | COc1ccc(NC(=O)N2CCCN(CCCCCNC(=O)/C=C/c3ccc(Cl)cc3)CC2)cc1Cl | 0.81 µM
20 | Nc1ncc(-c2ccsc2)c2ccc(-c3cnc[nH]3)cc12 | 0.57 µM
21 | O=C(Nc1cc(C(F)(F)F)cc(C(F)(F)F)c1)N1CCC(CCN2CCC(c3c[nH]c4ccccc34)CC2)CC1 | 1.26 µM
22 | O=C(Nc1cccc(-c2nn3ncccc3c2-c2ccnc(Nc3cccc(C(F)(F)F)c3)n2)c1)c1c(F)cccc1F | 0.65 µM
23 | COc1cccc(CNC(=O)c2ccnc(-c3ccc(CNCCOc4ccccc4)cc3)c2)c1 | 1.2 µM
24 | OCCc1ccc(Nc2nccc(-c3nnc4ccccn34)n2)cc1 | 0.9 µM

Row | Structure (SMILES) | IC50
25 | CCCNCc1ccc(-c2ccc(CN(CCOC)C(=O)[C@H]3CCCO3)cc2)nc1 | 0.75 µM
26 | COc1ccc(-n2nc(C(=O)NCc3ccccc3OC)c3ccccc3c2=O)cc1 | 0.22 µM
27 | Cc1cc2nc(-c3ccc(C(=O)NCc4ccc(C(C)(C)C)cc4)cc3)[nH]c2cc1C | 0.77 µM
28 | Cc1cc(N[C@@H](Cc2ccccc2)C(=O)NCCCOC(C)C)nc(NCCc2ccc(F)cc2)n1 | 0.93 µM
29 | COCCNCc1ccc(-c2ccc3c(Nc4ccc(Cl)cc4F)ccnc3c2)o1 | 0.21 µM
30 | O=C(Nc1cccc(-c2cccc(-c3nc4ccccc4[nH]3)c2)c1)Nc1ccc(Cl)c(Cl)c1 | 0.13 µM
31 | Cc1cccc2[nH]c(-c3cccc(-c4ccc(NC(=O)C(=O)c5cccn5C)cc4)c3)nc12 | 0.38 µM
32 | O=C(C=Cc1ccc(F)cc1)NC1CCC(CCN2CCc3ccc(-c4cnccn4)cc3CC2)CC1 (configuration not stated) | 0.69 µM
33 | COc1ccc2nc(-c3cc(-c4ccc(NC(=O)C(C)C)cc4)cnc3N)[nH]c2c1 | 0.56 µM
34 | CNC(=O)Cc1ccc(C(=O)Nc2cccc(-c3csc(-c4nc5ccccc5[nH]4)c3)c2)cc1 | 0.27 µM
35 | COc1ccccc1CN1CCC(NC(=O)c2ccc(-c3cccc(C(F)(F)F)c3)s2)CC1 | 1.31 µM
36 | NC(=O)c1cc2nc(NC3CCC3)nc(Nc3cccc4[nH]ncc34)c2[nH]1 | 0.73 µM
37 | O=C(Nc1ccc([N+](=O)[O-])cc1)Nc1cc(C(F)(F)F)ccc1F | 1.07 µM
38 | CC1CN(c2cc(=O)n(Cc3cccc(NC(=O)Nc4ccc(-c5ccccc5)cc4)c3)cn2)CC(C)N1 (configuration not stated) | 0.4 µM
39 | O=C(/C=C/c1ccccc1Cl)NC1CCC(CN2[C@@H]3CC[C@H]2CC(c2c[nH]c4ccccc24)C3)CC1 (some centres not stated) | 0.71 µM
40 | CN(c1ccc2c(c1)nc(Nc1ccc(Cl)cc1)n2C)c1ccnc(Nc2ccc(CS(C)(=O)=O)cc2)n1 | 0.76 µM
41 | COc1ccc(-c2c(C(F)(F)F)nn(C)c2NC(=O)Nc2ccc(F)cc2F)cc1 | 0.8 µM
42 | COc1cccc(C2CCCN(CCCCNC(=O)c3ccc(NC(=O)c4ccc(Cl)cc4)cc3)C2)c1 (configuration not stated) | 0.86 µM
43 | CC1=C(C(=O)Nc2cc3cn[nH]c3cc2F)C(c2cccc(NS(C)(=O)=O)c2)CC(=O)N1 (configuration not stated) | 0.43 µM
44 | COc1ccc(-c2cnc3ccc(NCCCO)nn23)cc1OC | 0.67 µM
45 | C=C(C)Cn1cc(C2CCN(CCCCNC(=O)c3sc(-c4ccc(Cl)cc4Cl)nc3CO)CC2)c2ccccc21 | 1.15 µM
46 | COc1ccc(S(=O)(=O)N2CCC(NS(=O)(=O)c3ccc(F)cc3)CC2)cc1 | 1.33 µM
47 | N#Cc1cccc([C@H](O)[C@@H]2CN(CCC3CCCCC3)CC[C@@]2(O)c2ccccc2)c1 | 0.13 µM
